Measurements from patent publication US20040101544A1, “Method for detoxifying a carbohydrate containing solution” (priority 2000, published 2004).

Experiments:
[1] = system: mouse fibroblasts cells L-929; details: alone or in mixtures at the concentrations found in PD fluids; cited from earlier work
[2] = Biological effects of 3,4-dideoxy-glucosone-3-ene (test not specified)
[3] = system: mouse fibroblasts cells L-929; experiment: In vitro assay for cytotoxicity: inhibition of cell growth (ICG); format: cell-based
Method: Carbohydrate containing medical solutions used for peritoneal dialysis were mixed with 1 part of a cell growth medium and 10% (volume/volume) fetal calf serum was added (Wieslander et al., 1991, Kidney Int. 40:77-79). The basal cytotoxicity of the medical solution used for peritoneal dialysis was determined on mouse fibroblasts cells L-929 (CCL-1; ATTC, Rockville, Md., USA) as described earlier (Wieslander et al. 1993, Advances in Peritoneal Dialys, 9:31-35) and expressed as inhibition of cell growth (ICG).
Mouse fibroblast cells (L-929) were grown and incubated according to Järkelid et al., 2000, ATLA 28, 415-425. Inhibition of cell growth was determined for a 4% PD fluid with the following composition
Additionally dose response curves were made in MEM (Minimal Essential Medium).
The results from incubation of L-929 cells with synthetic 3,4-dideoxy-glucosone-3-ene added in MEM are presented in table 1 below showing the values plotted in FIG. 5. The 4% PD solution was autoclaved while the PD fluid was sterile filtered. The PD solutions were tested twice (% ICG1 and % ICG2) and the mean ICG was calculated.

Question: With `O=CC=O` [glyoxal] as the molecule, how does the “toxicity in the L-929 system” value [1] read?
Answer: None of these five listed compounds show toxicity

Question: Which “toxicity in the L-929 system” value [1] does the source give for `C=O` [formaldehyde] here?
Answer: None of these five listed compounds show toxicity

Question: For `CC=O` [acetaldehyde], which “toxicity in the L-929 system” value [1] is on record?
Answer: None of these five listed compounds show toxicity

Question: For `O=CC(=O)C[C@H](O)[C@H](O)CO` [3-deoxyglucosone], which “toxicity in the L-929 system” value [1] is on record?
Answer: None of these five listed compounds show toxicity

Question: For 3,4-dideoxy-glucosone-3-ene [3,4-DGE], which “concentration below which no biological effects seem to be present” value [2] is on record?
Answer: < 2 μM

Question: What about the “% ICG1” value ([3]; 5 μM 3,4-DGE in MEM) of the same molecule?
Answer: 24%

Question: What about the “% ICG2” value ([3]; 5 μM 3,4-DGE in MEM) of the same molecule?
Answer: 12%

Question: And the “% ICG3” value ([3]; 5 μM 3,4-DGE in MEM)?
Answer: 31%

Question: What about the “mean % ICG” value ([3]; 5 μM 3,4-DGE in MEM) of the same molecule?
Answer: 21,5%

Question: And the “% ICG1” value ([3]; 15 μM 3,4-DGE in MEM)?
Answer: 47%

Question: And the “% ICG2” value ([3]; 15 μM 3,4-DGE in MEM)?
Answer: 49%

Question: And the “% ICG3” value ([3]; 15 μM 3,4-DGE in MEM)?
Answer: 44%

Question: And the “mean % ICG” value ([3]; 15 μM 3,4-DGE in MEM)?
Answer: 46,5%

Question: What about the “% ICG1” value ([3]; 52 μM 3,4-DGE in MEM) of the same molecule?
Answer: 92%

Question: What about the “% ICG2” value ([3]; 52 μM 3,4-DGE in MEM) of the same molecule?
Answer: 80%

Question: What about the “% ICG3” value ([3]; 52 μM 3,4-DGE in MEM) of the same molecule?
Answer: 88%

Question: And the “mean % ICG” value ([3]; 52 μM 3,4-DGE in MEM)?
Answer: 84%

Question: What about the “% ICG2” value ([3]; 2,5 μM 3,4-DGE in MEM) of the same molecule?
Answer: 5%

Question: What about the “% ICG3” value ([3]; 2,5 μM 3,4-DGE in MEM) of the same molecule?
Answer: 20%

Question: And the “mean % ICG” value ([3]; 2,5 μM 3,4-DGE in MEM)?
Answer: 12,5%

Question: What about the “% ICG1” value ([3]; 10,4 μM 3,4-DGE in MEM) of the same molecule?
Answer: 36%

Question: And the “% ICG2” value ([3]; 10,4 μM 3,4-DGE in MEM)?
Answer: 51%

Question: What about the “% ICG3” value ([3]; 10,4 μM 3,4-DGE in MEM) of the same molecule?
Answer: 42%

Question: What about the “mean % ICG” value ([3]; 10,4 μM 3,4-DGE in MEM) of the same molecule?
Answer: 46,5%

Question: And the “% ICG1” value ([3]; 24,3 μM 3,4-DGE in MEM)?
Answer: 63%

Question: And the “% ICG2” value ([3]; 24,3 μM 3,4-DGE in MEM)?
Answer: 65%

Question: What about the “% ICG3” value ([3]; 24,3 μM 3,4-DGE in MEM) of the same molecule?
Answer: 58%

Question: What about the “mean % ICG” value ([3]; 24,3 μM 3,4-DGE in MEM) of the same molecule?
Answer: 61,5%

Question: What about the EC50 ([3]; dose response curves in MEM, L-929 cells) of the same molecule?
Answer: 16 µM

Question: And the “toxicity in cytotoxicity test” value ([3]; fibroblast cells)?
Answer: toxic to fibroblast cells
